Results: PubChem BioAssay AID1919004 (Molecular Pharmacology Branch, DTP, NCI, 2023)
pIC50: −log10 of the molar value. “And” between values parts separate entries of the source, which are not always exact repeats. Equal values may be shown once. One block for each molecule: values may come before it.

Tested on: 883617-216-R-J1-PDC complex spheroids, growth, % test/control
Experiment: Anticancer human tumor 883617-216-R-J1-PDC patient-derived bladder carcinoma cell line growth inhibition [AhR]
Conditions: for viability, T/C: stronger effect = lower value
Excerpt: Multicellular complex tumor spheroid response to aryl hydrocarbon receptor antagonists in combination with a variety of drugs and investigational agents in selected tumor cell lines
The current study was undertaken to assess response to aryl hydrocarbon receptor antagonists in combination with standard-of-care drugs and investigational agents in solid tumor complex spheroid models. Complex spheroids include a stromal component modeled by human endothelial cells (HUVEC) and fibroblasts modeled by human mesenchymal stem cells (MSCs). The concentration ranges selected for each drug and investigational agent were based upon clinically achievable concentrations if the clinical Cmax of the agent was known.
Compounds. The drugs and investigational agents: BAY 2416964 (NSC825713), GNF351 (NSC835774), CH-223191 (NSC835775), CPI-455 (NSC825282), aza-TdCyd (NSC777586), decitabine (NSC127716), belinostat (NSC758774), entinostat (NSC756642), pevonedistat (NSC761192), tazemetostat (NSC777109), talazoparib (NSC765396), olaparib (NSC753686), selinexor (NSC780203), nedisertib (M3814, NSC802822), bortezomib (NSC756655), venetoclax (NSC766270), doxorubicin (NSC123127), elimusertib (BAY189344, NSC800525), ceralasertib (AZD6738, NSC777638), TAK-243 (NSC785004), alisertib (NSC759677), etoposide (NSC141540), topotecan (NSC609699), eribulin (NSC707389), gemcitabine (NSC613327), carboplatin (NSC241240), cisplatin (NSC119875), and SN-38 (NSC673596) were obtained from the National Cancer Institute (NCI) Developmental Therapeutics Program Chemical Repository (32). The FDA-approved anticancer drug set is available from the Developmental Therapeutics Program at https://dtp.cancer.gov/organization/dscb/obtaining/available plates.htm. […] The stock solutions were prepared in dimethyl sulfoxide (DMSO, Sigma-Aldrich, St. Louis, MO, cat. D2650), except for the platinum compounds which were prepared in saline (Quality Biological, Gaithersburg, MD, cat. 114-055-101), at 800-fold the tested concentration and stored at -70 degrees C prior to their use. All drugs and investigational agents were tested over a range starting from a high concentration at or near the clinical Cmax and decreasing in half-log increments. If the clinical Cmax for an agent had not been determined, the highest concentration tested was 10 microM (Table 1).
Cell Culture. All cells were maintained in an incubator at 37 degrees C and 5% CO2 with 95% humidity. The PDC lines were cultured according to standard operating procedures established by the NCI PDMR (https://pdmr.cancer.gov). Briefly, all PDCs were thawed and cultured in Matrigel-coated flasks prepared with a working solution of 1X Ham's F-12 nutrient mix, without supplementation (Invitrogen, Waltham, MA, cat. 11765054), 100 U/mL penicillin-streptomycin (Invitrogen, cat. 15140122), and 2.5% Matrigel (Corning Inc., Corning, NY, cat. 354248) for the first three passages. All PDCs were cultured in complete DMEM/F-12 media containing advanced DMEM/F-12 (Invitrogen, cat. 12634028), 4.9% defined fetal bovine serum, heat inactivated (HyClone Laboratories Inc., Logan, UT, cat. SH30070.03HI), 389 ng/mL hydrocortisone (Sigma-Aldrich, cat. H4001), 9.7 ng/mL human EGF recombinant protein (Invitrogen, cat. PHG0313), 23.4 microg/mL adenine (Sigma-Aldrich, cat. A2786), 97.3 U/mL penicillin-streptomycin (Invitrogen, cat. 15140122), 1.9 mM L-glutamine (Invitrogen, cat. 25030081), and 9.7 microM Y-27632 dihydrochloride (Tocris Bioscience, Bristol, United Kingdom, cat. 1254). The PDCs were cultured in complete DMEM/F12 media without 10 microM Y-27632 dihydrochloride for at least two passages prior to the screen. The established cell lines NCI-H1341 and […] were cultured in DMEM/F-12, HEPES (Invitrogen, cat. 11330032), 5% defined fetal bovine serum (HyClone Laboratories Inc., cat. SH30070.03), ITS premix universal culture supplement [insulin (5 microg/mL), transferrin (5 microg/mL), and selenious acid (5 ng/mL)] […]

[1] = curve of first compound, second compound 0.1 µM
[2] = curve of first compound, second compound 0.316 µM
[3] = curve of first compound, second compound 1 µM
[4] = curve of first compound, second compound 3.16 µM
[5] = curve of first compound, second compound 10 µM
[6] = second compound 0.1 µM, first compound 0.0316 µM
[7] = second compound 0.1 µM, first compound 0.1 µM
[8] = second compound 0.1 µM, first compound 0.316 µM
[9] = second compound 0.1 µM, first compound 1 µM
[10] = second compound 0.1 µM, first compound 3.16 µM
[11] = second compound 0.1 µM, first compound 10 µM
[12] = second compound 0.316 µM, first compound 0.0316 µM
[13] = second compound 0.316 µM, first compound 0.1 µM
[14] = second compound 0.316 µM, first compound 0.316 µM
[15] = second compound 0.316 µM, first compound 1 µM
[16] = second compound 0.316 µM, first compound 3.16 µM
[17] = second compound 0.316 µM, first compound 10 µM
[18] = second compound 1 µM, first compound 0.0316 µM
[19] = second compound 1 µM, first compound 0.1 µM
[20] = second compound 1 µM, first compound 0.316 µM
[21] = second compound 1 µM, first compound 1 µM
[22] = second compound 1 µM, first compound 3.16 µM
[23] = second compound 1 µM, first compound 10 µM
[24] = second compound 3.16 µM, first compound 0.0316 µM
[25] = second compound 3.16 µM, first compound 0.1 µM
[26] = second compound 3.16 µM, first compound 0.316 µM
[27] = second compound 3.16 µM, first compound 1 µM
[28] = second compound 3.16 µM, first compound 3.16 µM
[29] = second compound 3.16 µM, first compound 10 µM
[30] = second compound 10 µM, first compound 0.0316 µM
[31] = second compound 10 µM, first compound 0.1 µM
[32] = second compound 10 µM, first compound 0.316 µM
[33] = second compound 10 µM, first compound 1 µM
[34] = second compound 10 µM, first compound 3.16 µM
[35] = second compound 10 µM, first compound 10 µM
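Further: exposure lasted 7 days after dosing on day 3 of spheroid growth.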

pIC50 [1]: 8.73
pIC50 [2]: 8.66
pIC50 [3]: 8.66
pIC50 [4]: 8.80
pIC50 [5]: 8.70
Compound: CC(C)CC(NC(=O)C(Cc1ccccc1)NC(=O)c1cnccn1)B(O)O (centres undefined) + CC(CO)NC(=O)c1cc(-c2ccc(Cl)cc2)nn(-c2cnn(C)c2)c1=O
viability, T/C (second compound 0.1 µM, first compound 0.000949 µM): 106%
viability, T/C (second compound 0.1 µM, first compound 0.003 µM): 10.4%
viability, T/C (second compound 0.1 µM, first compound 0.00949 µM): 2.11%
viability, T/C (second compound 0.1 µM, first compound 0.03 µM): 2.02%
viability, T/C (second compound 0.1 µM, first compound 0.0949 µM): 1.92%
viability, T/C (second compound 0.1 µM, first compound 0.3 µM): 3.28%
viability, T/C (second compound 0.316 µM, first compound 0.000949 µM): 123%
viability, T/C (second compound 0.316 µM, first compound 0.003 µM): 22.9%
viability, T/C (second compound 0.316 µM, first compound 0.00949 µM): 2.66%
viability, T/C (second compound 0.316 µM, first compound 0.03 µM): 3.45%
viability, T/C (second compound 0.316 µM, first compound 0.0949 µM): 3.14%
viability, T/C (second compound 0.316 µM, first compound 0.3 µM): 2.44%
viability, T/C (second compound 1 µM, first compound 0.000949 µM): 123%
viability, T/C (second compound 1 µM, first compound 0.003 µM): 23.5%
viability, T/C (second compound 1 µM, first compound 0.00949 µM): 1.76%
viability, T/C (second compound 1 µM, first compound 0.03 µM): 2.42%
viability, T/C (second compound 1 µM, first compound 0.0949 µM): 1.86%
viability, T/C (second compound 1 µM, first compound 0.3 µM): 3.98%
viability, T/C (second compound 3.16 µM, first compound 0.000949 µM): 80.2%
viability, T/C (second compound 3.16 µM, first compound 0.003 µM): 13.3%
viability, T/C (second compound 3.16 µM, first compound 0.00949 µM): 3.01%
viability, T/C (second compound 3.16 µM, first compound 0.03 µM): 2.25%
viability, T/C (second compound 3.16 µM, first compound 0.0949 µM): 2.47%
viability, T/C (second compound 3.16 µM, first compound 0.3 µM): 1.67%
viability, T/C (second compound 10 µM, first compound 0.000949 µM): 122%
viability, T/C (second compound 10 µM, first compound 0.003 µM): 10.3%
viability, T/C (second compound 10 µM, first compound 0.00949 µM): 1.69%
viability, T/C (second compound 10 µM, first compound 0.03 µM): 2.43%
viability, T/C (second compound 10 µM, first compound 0.0949 µM): 2.25%
viability, T/C (second compound 10 µM, first compound 0.3 µM): 1.87%

pIC50 (curve of compound): < 5.00
Compound: CC(C)c1c(-c2ccccc2)nc2c(C#N)c[nH]n2c1=O
viability, T/C (compound 0.0316 µM): 101% and 93.4% and 95%
viability, T/C (compound 0.1 µM): 107% and 97.3% and 110%
viability, T/C (compound 0.316 µM): 109% and 96% and 82.6%
viability, T/C (compound 1 µM): 98.6% and 98% and 68.8%
viability, T/C (compound 3.16 µM): 110% and 100% and 82.2%
viability, T/C (compound 10 µM): 105% and 102% and 77.7%

The remaining lines, values behind:

Compound: O=C(c1cc(Cc2n[nH]c(=O)c3ccccc23)ccc1F)N1CCN(C(=O)C2CC2)CC1 + Cc1cncc(-c2nc(NCCc3c[nH]c4ccccc34)c3ncn(C(C)C)c3n2)c1
pIC50 [1]: < 5.00
pIC50 [2]: < 5.00
pIC50 [3]: < 5.00
pIC50 [4]: < 5.00
pIC50 [5]: < 5.00
viability, T/C [6]: 81.1%
viability, T/C [7]: 89.9%
viability, T/C [8]: 76.4%
viability, T/C [9]: 79.5%
viability, T/C [10]: 70.8%
viability, T/C [11]: 83.7%
viability, T/C [12]: 93.5%
viability, T/C [13]: 86.9%
viability, T/C [14]: 79.1%
viability, T/C [15]: 78.9%
viability, T/C [16]: 77.9%
viability, T/C [17]: 71.7%
viability, T/C [18]: 90%
viability, T/C [19]: 90.9%
viability, T/C [20]: 91%
viability, T/C [21]: 78.9%
viability, T/C [22]: 87%
viability, T/C [23]: 80%
viability, T/C [24]: 99.9%
viability, T/C [25]: 94.8%
viability, T/C [26]: 98.4%
viability, T/C [27]: 89.6%
viability, T/C [28]: 101%
viability, T/C [29]: 71.9%
viability, T/C [30]: 53.8%
viability, T/C [31]: 54.9%
viability, T/C [32]: 50.4%
viability, T/C [33]: 49.6%
viability, T/C [34]: 49.3%
viability, T/C [35]: 54.4%

Compound: O=C(c1cc(Cc2n[nH]c(=O)c3ccccc23)ccc1F)N1CCN(C(=O)C2CC2)CC1
viability, T/C (compound 0.0316 µM): 101% and 100% and 93%
viability, T/C (compound 0.1 µM): 89.1% and 106% and 100%
viability, T/C (compound 0.316 µM): 95.9% and 94.9% and 112%
viability, T/C (compound 1 µM): 85.9% and 97.1% and 102%
viability, T/C (compound 3.16 µM): 88% and 93.1% and 105%
viability, T/C (compound 10 µM): 70.5% and 76.4% and 105%
pIC50 (curve of compound): < 5.00

Compound: COc1cc(C2c3cc4c(cc3C(OC3OC5COC(C)OC5C(O)C3O)C3COC(=O)C23)OCO4)cc(OC)c1O (centres undefined) + Cc1ccccc1N=Nc1ccc(NC(=O)c2ccnn2C)c(C)c1
pIC50 [1]: < 5.00
pIC50 [2]: < 5.00
pIC50 [3]: < 5.00
pIC50 [4]: < 5.00
pIC50 [5]: < 5.00
viability, T/C [6]: 86.4%
viability, T/C [7]: 83.5%
viability, T/C [8]: 69.7%
viability, T/C [9]: 68%
viability, T/C [10]: 69.5%
viability, T/C [11]: 57.4%
viability, T/C [12]: 80.8%
viability, T/C [13]: 86.7%
viability, T/C [14]: 77.3%
viability, T/C [15]: 69%
viability, T/C [16]: 70.2%
viability, T/C [17]: 57.6%
viability, T/C [18]: 80.7%
viability, T/C [19]: 82%
viability, T/C [20]: 75.7%
viability, T/C [21]: 64.6%
viability, T/C [22]: 72.1%
viability, T/C [23]: 54.2%
viability, T/C [24]: 73%
viability, T/C [25]: 72.7%
viability, T/C [26]: 71.1%
viability, T/C [27]: 61.2%
viability, T/C [28]: 70.9%
viability, T/C [29]: 56.4%
viability, T/C [30]: 67.8%
viability, T/C [31]: 77.5%
viability, T/C [32]: 73.2%
viability, T/C [33]: 65.6%
viability, T/C [34]: 63.5%
viability, T/C [35]: 57.1%
